Patent US6683077B2, “2-Amino-benzoxazinones for the treatment of viral infections” (G.D. Searle & Co., priority 1996, dated 2004)
pEC50, pIC50: −log10 of the molar value.

What was measured:
[1] = system: human foreskin fibroblasts
[2] = system: HCMV (strain AD169); test: HCMV ELISA antiviral assay (viral antigen); format: cell-based, human cytomegalovirus; settings: Human betaherpesvirus 5, Fibroblast; HCMV AD169 in human foreskin fibroblasts; value before the slash; unit inferred; read-out: Antiviral Activity Elisa, first value (EC50)
Excerpt: These complimentary assays tested the ability of a compound to inhibit the production of new virus and the toxicity of the compound to she host cells. It was important that both assays be performed simultaneously in order to compare the results directly since, toxicity may indirectly reduce viral yield.
Viral yield was estimated by measuring the amount of a viral antigen produced 4 days post infection with a monoclonal antibody to an abundant “immediate early” viral protein. An enzyme-linked (horseradish peroxidase) secondary antibody specific to the primary (mouse) antibody was urged to measure the amount of viral antigen. Test compounds were diluted to 2-times the desired final concentration in DMEM+5% FBS. One hundred microliters of this solution was placed in each well of a 96-well plate. This was performed once for the antiviral 96-well plate and again for a cytotoxicity plate. Two controls were also included for both plates; a no drug control and a no virus control. Ganciclovir was routinely tested in antiviral and cytotoxicity plates as a reference standard because it has known antiviral activity for HCMV. All cells were prepared by harvesting human foreskin fibroblasts, with trypsin and re-suspending at a concentration of 5×10^5 cells per ml in DMEM. Infected cells were prepared by infecting these with HCMV (strain AD169) at a multiplicity of infection=0.2. One hundred microliters of uninfected cells (5×10^4 cells) were added to the appropriate wells of the cytotoxicity plate. In a similar manner 100 μl of infected cells (5×10^4 cells) were added to the appropriate wells of the antiviral plate. Additionally, uninfected cells not treated with test compound were included as controls on the antiviral plate. Plates were incubated for 96 hours at 37° C. in 5% CO2 atmosphere and processed to measure the amount of viral antigen and toxicity.
The following was performed on the antiviral plate only. Media was removed and cells were fixed with 1:1 acetone:methanol for 15 minutes at −20° C. Fixative was removed and cells were washed once with PBS containing 0.05% Tween20. In order to block nonspecific binding of antibodies, each well was incubated with PBS containing 3% (w/v) bovine serum albumin (BSA) for 1 hour at 22° C. The blocking solution was removed and the cells were washed once with PBS containing 0.05% Tween20 before incubating with 1:100 dilution of primary antibody in PBS containing 3% BSA for 2 hours at 22° C. The primary antibody was a monoclonal antibody (mouse source) specific to the immediate early nuclear antigen of HCMV and was commercially available (Dupont). The 1° antibody solution was removed and the plate was rinsed 5 times with PBS containing 1% (v/v) Triton X-100 (PBST) before incubating with secondary antibody diluted 1:1000 in PBS containing 3% BSA for 2 hours at 22° C. The secondary antibody (goat source) recognized the murine-specific determinants of the 1° antibody and was covalently linked to horseradish peroxidase (Sigma). The plate was rinsed 5 times with PBST and once with deionized water before adding 100 μl TMB substrate solution and incubating 30 minutes at 22° C. The reaction was stopped by adding 100 μL of phosphoric acid and the OD at 450 nm recorded. TMB (3,3′,5,5′ tetramethylbenzidine) was the substrate for the horseradish peroxidase linked to the 2° antibody. It was made from a commercially available kit (Kirkegaard & Perry Laboratories, Inc.). Antiviral activity was calculated by comparing the amount of viral antigen produced in drug treated wells with that produced in wells absent of drug.

[3] = system: HCMV engineered virus RC256; test: microbe, parasite or virus in culture; format: cell-based, human cytomegalovirus; settings: Human betaherpesvirus 5, Fibroblast, read-out: Antiviral Activity RC256, first value (EC50)
[4] = biological target: T1, Human leukocyte elastase (HLE) (Homo sapiens, UniProt P08246); test: Human leukocyte elastase assay; format: biochemical
T1 construct: gift of R. Senior, Washington University
T1 sequence (P08246 30-267): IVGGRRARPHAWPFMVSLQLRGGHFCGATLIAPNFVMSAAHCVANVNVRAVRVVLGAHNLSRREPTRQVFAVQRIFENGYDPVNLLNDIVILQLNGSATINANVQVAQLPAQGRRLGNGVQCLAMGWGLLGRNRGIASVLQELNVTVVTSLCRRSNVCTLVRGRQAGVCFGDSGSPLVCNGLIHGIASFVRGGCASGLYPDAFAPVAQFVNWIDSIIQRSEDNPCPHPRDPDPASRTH
Description: Human leukocyte elastase (HLE) (gift of R. Senior, Washington University) was dissolved in saline at 1 mg/ml and further diluted 1/20 in assay buffer (0.2 M Tris, pH 8.0) before use. 10 μl of test compound in DMSO (or DMSO alone), 100 μl of assay buffer and 50 μl of enzyme were added to 96 well plates, mixed and pre-incubated for 30 minutes at ambient temperature. Reaction was initiated by addition of 40 μl of 2.5 mM methoxysuccinyl-Ala-Ala-Pro-Val-p-nitroanilide (Sigma; 25 mM in DMSO diluted 1/10 in assay buffer before use). The increase in absorbance at 405 nm was monitored for 10 minutes with a Biotek EL340 plate reader.

[5] = biological target: HCMV protease (assemblin) (Human cytomegalovirus, UniProt P16753); test: Enzymatic assay for HCMV protease (assemblin) inhibitors; format: biochemical
[6] = @ 1 (concentration unit not given)
[7] = @ 10 (concentration unit not given)
[8] = @ 100 (concentration unit not given)

HCMV protease (assemblin), sequence (P16753 1-256): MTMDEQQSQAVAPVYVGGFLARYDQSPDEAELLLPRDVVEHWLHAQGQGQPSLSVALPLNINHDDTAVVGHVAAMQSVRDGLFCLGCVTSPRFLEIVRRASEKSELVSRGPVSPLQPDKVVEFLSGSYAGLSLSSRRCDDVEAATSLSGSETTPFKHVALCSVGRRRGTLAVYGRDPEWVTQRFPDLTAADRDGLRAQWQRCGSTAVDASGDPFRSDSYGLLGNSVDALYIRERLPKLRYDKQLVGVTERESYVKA

| Molecule | pEC50 [2] | pEC50 [3] | other results |
| --- | --- | --- | --- |
| 3,5-Diiodo-N-(5-methyl-(3,5-diiodo)2-yl)-L-tyrosine, methyl ester [Example 1q] |  |  | Antiviral Activity RC256, second value (cytotoxicity) [1]: 70 |
| COC(=O)[C@H](C)Nc1nc2cccc(C)c2c(=O)o1 [Example 1b, N-(5-Methyl-4-oxo-4H-3,1-benzoxazin-2-yl)-L-alanine, methyl ester] | 4.14 |  |  |
| Cc1cccc2nc(N[C@@H](C)c3ccccc3)oc(=O)c12 [Example 3b, 5-Methyl-2-[[(1S)-1-phenylethyl]amino]-4H-3,1-benzoxazin-4-one] | 4.57 |  |  |
| Cc1c(NC(=O)OC(C)(C)C)ccc2nc(N[C@@H](C)C(=O)N(C)Cc3ccccc3)oc(=O)c12 [Example 6aa, N-[6-[[(1,1-Dimethylethoxy)carbonyl]amino]-5-methyl-4-oxo-4H-3,1-benzoxazin-2-yl]-L-alanine, N-methyl-N-phenylmethylamide] | 4.12 |  |  |
| COC(=O)[C@H](Cc1cscn1)Nc1nc2ccc(NC(=O)OC(C)(C)C)c(C)c2c(=O)o1 [Example 6e, N-[6-[[(1,1-Dimethylethoxy)carbonyl]amino]-5-methyl-4-oxo-4H-3,1-benzoxazin-2-yl]-L-thiazol-4-yl-alanine, methyl ester] | 4.24 |  |  |
| Cc1c(NC(=O)OC(C)(C)C)ccc2nc(N[C@@H](C)C(=O)N3CCCC3)oc(=O)c12 [Example 6g, N-[6-[[(1,1-Dimethylethoxy)carbonyl]amino]-5-methyl-4-oxo-4H-3,1-benzoxazin-2-yl]-L-alanine, pyrrolidineamiae] | 4.00 |  |  |
| COc1ccc(C[C@H](Nc2nc3ccc(CNC(=O)OC(C)(C)C)c(C)c3c(=O)o2)C(=O)N(C)c2ccc(Cl)cc2)cc1 [Example 7r, 1,1-Dimethylethyl[[2-[[2-[(4-chlorophenyl)methylamino]-1S-[(4-methoxyphenyl)methyl]-2-oxoethyl]amino]-5-methyl-4-oxo-4H-3,1-benzoxazin-6-yl]methyl]carbamate] |  | 5.15 | HLE, % @ concentration [4, 6]: 44% @ 1; Assemblin Protease, % @ concentration [5, 6]: 52% @ 1 |
| Cc1c(CNC(=O)Oc2ccccc2)ccc2nc(N[C@@H](Cc3ccccc3)C(=O)N(C)Cc3ccccc3)oc(=O)c12 [Example 9ee, Phenyl[[5-methyl-2-[[2-[methyl(phenylmethyl)amino]-2-oxo-1S-(phenylmethyl)ethyl]amino]-4-oxo-4H-3,1-benzoxazin-6-yl]methyl]carbamate] |  | 4.82 | HLE, % @ concentration [4, 7]: 47% @ 10; pIC50 [5]: 6.22 |
| COc1ccc(C[C@H](Nc2nc3ccc(CNC(=O)Oc4ccccc4)c(C)c3c(=O)o2)C(=O)N(C)Cc2ccccc2)cc1 [Example 9j, Phenyl[[2-[[1S-[(4-methoxyphenyl)methyl]-2-[methyl(phenylmethyl)amino]-2-oxcethyl]amino]-5-methyl-4-oxo-4H-3,1-benzoxazin-6-yl]methyl]carbamate] |  | 4.70 | pIC50 [5]: 6.40 |
| CCN(Cc1ccccc1)C(=O)[C@H](Cc1ccc(OC)cc1)Nc1nc2ccc(CNC(=O)Oc3ccccc3)c(C)c2c(=O)o1 [Example 9q, Phenyl[[2-[[2-[ethyl(phenylmethyl)amino-1S-,(4-methoxyphenyl)methyl]-2-oxoethyl]amino]-5-methyl-4-oxo-3,1-benzoxazin-6-yl]methyl]carbamate] |  | 4.74 | HLE, % @ concentration ([4]; @ 5 (concentration unit not given)): 48% @ 5; pIC50 [5]: 6.00 |
| COCC(=O)Nc1ccc2nc(N[C@@H](Cc3ccccc3)C(=O)OC)oc(=O)c2c1C [Example 11c, N-[6-[[(Methoxymethyl)carbonyl]amino]-5-methyl-4-oxo-4H-3,1-benzoxazin-2-yl]-L-phenylalanine, methyl ester] | 4.11 |  | HLE, % @ concentration [4, 8]: 83% @ 100 |
| Cc1c(NC(=O)CN(C)C)ccc2nc(N[C@@H](C)c3ccccc3)oc(=O)c12 [Example 11m, 5-Methyl-6-[[(dimethylaminomethyl)carbonyl]amino]-2-[[(1S)-phenylethyl]amino]-4H-3,1-benzoxazin-4-one] | 4.06 |  | HLE, % @ concentration [4, 8]: 37% @ 100; Assemblin Protease, % @ concentration [5, 6]: 67% @ 1.0 |
| COc1ccc(C[C@H](Nc2nc3ccc(NC(=O)OCC(C)C)c(C)c3c(=O)o2)C(=O)N(C)Cc2ccccc2)cc1 [Example 11s, 2-Methylpropyl[2-[[1S-[(4-methoxyphenyl)methyl]-2-[methyl(phenylmethyl)amino]-2-oxoethyl]amino]-5-methyl-4H-3,1-benzoxazin-6-yl]carbamate] |  | 4.77 | Assemblin Protease, % @ concentration [5, 7]: 58% @ 10 |
| COc1ccc(C[C@H](Nc2nc3ccc(NC(=O)OCc4ccccc4)c(C)c3c(=O)o2)C(=O)N(C)Cc2ccccc2)cc1 [Example 11t, Phenylmethyl[2-[[1S-[(4-methoxyphenyl)methyl]-2-[methyl(phenylmethyl)amino]-2-oxoethyl]amino]-5-methyl-4H-3,1-benzoxazin-6-yl]carbamate] |  | 4.46 | Assemblin Protease, % @ concentration [5, 7]: 38% @ 10 |
| Cc1c(CNS(=O)(=O)c2ccccc2)ccc2nc(N[C@@H](Cc3ccccc3)C(=O)N(C)Cc3ccccc3)oc(=O)c12 [Example 13e, N-Methyl-αS-[[5-methyl-4-oxo-6-[[(phenylsulfonyl)amino]methyl]-4H-3,1-benzoxazin-2-yl]amino]-N-(phenylmethyl)benzenepropanamide] |  | 4.85 | Assemblin Protease, % @ concentration [5, 8]: 11% @ 100 |
| CCOC(=O)NCc1cc(Br)c2nc(N[C@@H](Cc3ccccc3)C(=O)N(C)Cc3ccccc3)oc(=O)c2c1C [Example 15b, Ethyl[[8-bromo-5-methyl-2-[[2-[methyl(phenylmethyl)amino]-2-oxo-1S-(phenylmethyl)ethyl]amino]-4-oxo-4H-3,1-benzoxazin-6-yl]methyl]carbamate] |  | 4.80 | Assemblin Protease, % @ concentration [5, 7]: 39% @ 10 |
